This is an account of results in ChEMBL document CHEMBL1201862, “PubChem BioAssay data set” (2004).

Test systems include CAKI-1; DMS-273; HCT-116; HL-60; LOX IMVI; Malme-3M; NCI-H522; SF-295; SF-539; SK-MEL-2; SK-MEL-5; SNB-19; SR; UO-31; HCT-15; U-251; KM-20L2.
Holding throughout (test): NCI anticancer screen, dose series, 48 h

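Exposure lasted 48 hours, with cells grown in 96-well plates and compounds tested at five concentrations. GI50 marks 50% less growth.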 Activity calls are given as the source filed them. No stated cut-off is given here; in the data, active = GI50 up to about 1.1 µM and inactive = higher.

As for `O=C1OC(Cl)C(N=P(c2ccccc2)(c2ccccc2)c2ccccc2)=C1Cl` (stereo not drawn), the GI50 in the assay on CAKI-1, with DMS-273, in the assay with HCT-116, in the assay with HL-60, in the assay with LOX IMVI and with Malme-3M was > 100 µM (inactive) throughout. In addition, the GI50 in the assay on NCI-H522 is > 100 µM (inactive); in the assay on SF-295 it was > 100 µM (inactive); in the assay on SF-539, 93.3 µM (inactive); in the assay with SK-MEL-2, > 100 µM (inactive); with SK-MEL-5, > 100 µM (inactive); in the assay with SNB-19, > 100 µM (inactive). Further, the GI50 in the assay on SR and in the assay with UO-31 was > 100 µM (inactive) throughout.
`O=C(O)C1=C(O)C(C(=O)O)C23CCCCCCCCCCC12C(C(=O)O)C(O)=C3C(=O)O` (stereo not drawn): the GI50 in the assay with DMS-273 is > 100 µM (inactive); in the assay with HCT-15 it was greater than 100 µM; in the assay with HL-60, > 100 µM (inactive); in the assay on Malme-3M, > 100 µM (inactive); with NCI-H522 it was > 100 µM (inactive); in the assay with SF-295, > 100 µM (inactive). For the same compound, the GI50 with SF-539, in the assay on SK-MEL-2, in the assay with SK-MEL-5, in the assay with SNB-19, in the assay on SR and with U-251 was > 100 µM (inactive) throughout. The GI50 in the assay with UO-31 was > 100 µM (inactive).
Turning to `C#CCN(N=O)C(=O)NCCCCC(NC(C)=O)C(=O)NCc1ccccc1` (stereo not drawn), the GI50 in the assay with CAKI-1 was > 100 µM (inactive); with HCT-116, > 100 µM (inactive); with HCT-15, greater than 100 µM; in the assay on KM-20L2 it was > 100 µM (inactive); with LOX IMVI it was > 100 µM (inactive); in the assay with Malme-3M, > 100 µM (inactive). Moreover, the GI50 with NCI-H522 was 25.5 µM (inactive); with SF-295, > 100 µM (inactive); with SF-539, > 100 µM (inactive); with SK-MEL-5 it was > 100 µM (inactive); in the assay with SNB-19 it was > 100 µM (inactive); in the assay on SR, 53 µM (inactive). Moreover, the GI50 with U-251 and with UO-31 was > 100 µM (inactive) each time.
Consider `Cc1cc(Br)cc(C)c1NC(=O)C(=O)CC(=O)c1sc(-n2nc(-c3ccccc3)cc2-c2ccccc2)nc1C`, for which the GI50 is > 100 µM (inactive) in the assay on CAKI-1; > 100 µM (inactive) with DMS-273; > 100 µM (inactive) with HCT-116; greater than 100 µM in the assay with HCT-15; > 100 µM (inactive) in the assay with HL-60; > 100 µM (inactive) in the assay with KM-20L2. In addition, the GI50 in the assay with LOX IMVI, in the assay on Malme-3M, in the assay with NCI-H522, with SF-295, with SNB-19 and in the assay with SR was > 100 µM (inactive) in each case. The GI50 with U-251 and in the assay on UO-31 was > 100 µM (inactive) throughout.
Turning to `CC(=O)Nc1ccc(/C=c2\sc3nnc(/C=C/c4ccccc4)n3c2=O)cc1`, the GI50 in the assay with CAKI-1, in the assay on DMS-273, with HCT-116, in the assay on HL-60, in the assay with KM-20L2 and with LOX IMVI was > 50 µM (inactive) each time. Moreover, the GI50 in the assay on Malme-3M, with NCI-H522, with SF-295, in the assay on SF-539, in the assay with SK-MEL-2 and in the assay on SK-MEL-5 was > 50 µM (inactive) each time. The GI50 with SNB-19, in the assay with U-251 and in the assay with UO-31 was > 50 µM (inactive) in each case.
For the compound `CC1(C)C(=O)CCC(=O)C(C)(C)C2=CC=C(O2)C(C)(C)C(=O)CCC(=O)C(C)(C)C2=CC=C1O2`, the GI50 with CAKI-1 was > 100 µM (inactive); in the assay with DMS-273 it was > 100 µM (inactive); in the assay with HCT-116 it was > 100 µM (inactive); in the assay on HCT-15, greater than 100 µM; in the assay on HL-60, > 100 µM (inactive); with KM-20L2, > 100 µM (inactive). The GI50 in the assay on LOX IMVI, with Malme-3M, in the assay with NCI-H522, in the assay with SF-295, with SK-MEL-2 and in the assay with SNB-19 was > 100 µM (inactive) throughout. Further, the GI50 in the assay on SR and with U-251 was > 100 µM (inactive) throughout.
Consider `Cc1ccc(/C=C/C(=O)c2ccc(Cl)c(Cl)c2)cc1`, for which the GI50 in the assay with CAKI-1, in the assay with DMS-273, in the assay with HCT-116, in the assay with HL-60, in the assay with KM-20L2 and with LOX IMVI was > 100 µM (inactive) throughout. In addition, the GI50 in the assay on Malme-3M, in the assay on NCI-H522, with SF-295, with SK-MEL-2, in the assay on SK-MEL-5 and in the assay on SNB-19 was > 100 µM (inactive) each time. Besides, the GI50 in the assay with SR, in the assay on U-251 and with UO-31 was > 100 µM (inactive) throughout.
As to `CCOC(=O)Cc1c(Cc2[nH]c(C(=O)OCc3ccccc3)c(CC(=O)OCC)c2CC(=O)OCC)[nH]c(C(=O)OCc2ccccc2)c1CC(=O)OCC`, the GI50 in the assay with CAKI-1 was > 100 µM (inactive); with HCT-116 it was > 100 µM (inactive); in the assay with HCT-15, greater than 100 µM; in the assay with HL-60, > 100 µM (inactive); in the assay with KM-20L2, > 100 µM (inactive); in the assay on Malme-3M, > 100 µM (inactive). For the same compound, the GI50 with NCI-H522, with SF-295, in the assay on SF-539, in the assay with SK-MEL-5, with SNB-19 and in the assay on SR was > 100 µM (inactive) each time. In addition, the GI50 with U-251 was > 100 µM (inactive); in the assay on UO-31 it was 67.8 µM (inactive).
For `CSC(=S)N(C)NC(=O)c1cccc(C(=O)NN(C)C(=S)SC)n1`, the GI50 was 14.1 µM (inactive) in the assay with DMS-273; 36.3 µM (inactive) with HCT-116; 25.9 µM in the assay on HCT-15; 5.7 µM (inactive) in the assay with HL-60; 4.07 µM (inactive) in the assay with KM-20L2; 31.4 µM (inactive) in the assay on LOX IMVI. For the same compound, the GI50 with NCI-H522 was 15.2 µM (inactive); in the assay with SF-295, 3.44 µM (inactive); with SF-539, 24.5 µM (inactive); in the assay on SK-MEL-5, 15.7 µM (inactive); in the assay with SNB-19 it was 26.4 µM (inactive); with SR, 4.97 µM (inactive). Besides, in the assay on U-251, the GI50 was 18.6 µM (inactive).
For the compound `COC(=O)C1=C(C)N(NC(=O)c2ccccc2)C(C)(O)C12CCOC2=O` (stereo not drawn), the GI50 in the assay with CAKI-1 is > 100 µM (inactive); in the assay with DMS-273, > 100 µM (inactive); in the assay on HCT-116, > 100 µM (inactive); in the assay with HCT-15, greater than 100 µM; in the assay on HL-60, > 100 µM (inactive); with KM-20L2, > 100 µM (inactive). In addition, the GI50 was > 100 µM (inactive) with LOX IMVI; 0.0475 µM (active) in the assay with Malme-3M; > 100 µM (inactive) with NCI-H522; > 100 µM (inactive) with SF-295; > 100 µM (inactive) in the assay with SF-539; 0.608 µM (active) in the assay with SK-MEL-2. Further, the GI50 with SNB-19, with U-251 and in the assay with UO-31 was > 100 µM (inactive) in each case.
On to `NC(=O)NCc1c(C(N)=O)ncn1Cc1ccccc1`, for which the GI50 in the assay with CAKI-1 was > 100 µM (inactive); with DMS-273 it was > 100 µM (inactive); in the assay with HCT-116, > 100 µM (inactive); with HCT-15, greater than 100 µM; in the assay on HL-60, > 100 µM (inactive); in the assay with KM-20L2, > 100 µM (inactive). Besides, the GI50 in the assay with LOX IMVI, with SF-295, in the assay on SF-539, in the assay with SK-MEL-5, with SNB-19 and in the assay on U-251 was > 100 µM (inactive) each time.
As to `CC(C)CCCC(C)[C@H]1CCC2[C@H]3C(CC[C@@]21C)[C@@]1(C)CCC=C[C@]12C[C@@H]2[C@@H]3O` (stereo partly drawn), the GI50 in the assay with CAKI-1 is > 100 µM (inactive); with DMS-273, > 100 µM (inactive); in the assay with HCT-116 it was > 100 µM (inactive); in the assay on HCT-15 it was greater than 100 µM; with HL-60 it was > 100 µM (inactive); with KM-20L2, > 100 µM (inactive). Also, the GI50 with LOX IMVI, in the assay with Malme-3M, in the assay with NCI-H522, in the assay on SF-295, with SF-539 and in the assay with SK-MEL-5 was > 100 µM (inactive) in each case. Further, the GI50 with SNB-19, in the assay with SR, with U-251 and in the assay with UO-31 was > 100 µM (inactive) in each case.
`C=C1CC[C@@H]2C(C)(C)C(O)CCC2(C)C1COc1ccc2ccc(=O)oc2c1` (stereo partly drawn): the GI50 in the assay with DMS-273 is 14.3 µM (inactive); in the assay on HCT-116 it was 15.5 µM (inactive); in the assay with HCT-15, 14.1 µM; in the assay with HL-60, 15.1 µM (inactive); with KM-20L2, 19.1 µM (inactive); in the assay on LOX IMVI, 16.8 µM (inactive). Also, the GI50 was 18.1 µM (inactive) in the assay on Malme-3M; 16.3 µM (inactive) in the assay on NCI-H522; 16.2 µM (inactive) in the assay on SF-295; 16.8 µM (inactive) in the assay on SF-539; 17.4 µM (inactive) with SK-MEL-2; 18.3 µM (inactive) in the assay with SNB-19. Besides, the results for the GI50 with SR, with U-251 and in the assay on UO-31 were 23.6 µM (inactive), 17.7 µM (inactive) and 16 µM (inactive), respectively.
On to `CN(C)CCNc1nc(-c2cccs2)cc(-c2cccs2)n1`, for which the GI50 in the assay on CAKI-1 was > 10 µM (inactive); in the assay with DMS-273 it was 10.8 µM (inactive); with HCT-116, 11.3 µM (inactive); in the assay on HCT-15, 15.9 µM; in the assay on LOX IMVI it was 10.5 µM (inactive); in the assay on Malme-3M it was 15.5 µM (inactive). The GI50 is > 10 µM (inactive) in the assay with NCI-H522; 14.3 µM (inactive) with SF-295; 15.1 µM (inactive) in the assay with SF-539; 16.8 µM (inactive) in the assay with SK-MEL-2; 15.3 µM (inactive) in the assay on SK-MEL-5; 2.84 µM (inactive) in the assay with SR. In addition, the GI50 is 10.7 µM (inactive) with U-251 and 11.2 µM (inactive) in the assay on UO-31.
